Source: patent publication US7230139B2, “Diterpenoid compounds, compositions thereof and their use as anti-cancer or anti-fungal agents” (priority 2004, dated 2007)

What was measured:
[1] = biological target: T1, human placental alkaline phosphatase (Homo sapiens, UniProt P05187); experiment: Conversion of phosphate pro-drug by alkaline phosphatase in vitro; format: in vitro ADME; conditions: 0.02 U/100 μL enzyme, 15 μM pro-drug, pH 7.4, within thirty minutes
T1 construct: purchased Sigma-Aldrich Canada Ltd
T1 sequence (P05187 23-506 limits assumed): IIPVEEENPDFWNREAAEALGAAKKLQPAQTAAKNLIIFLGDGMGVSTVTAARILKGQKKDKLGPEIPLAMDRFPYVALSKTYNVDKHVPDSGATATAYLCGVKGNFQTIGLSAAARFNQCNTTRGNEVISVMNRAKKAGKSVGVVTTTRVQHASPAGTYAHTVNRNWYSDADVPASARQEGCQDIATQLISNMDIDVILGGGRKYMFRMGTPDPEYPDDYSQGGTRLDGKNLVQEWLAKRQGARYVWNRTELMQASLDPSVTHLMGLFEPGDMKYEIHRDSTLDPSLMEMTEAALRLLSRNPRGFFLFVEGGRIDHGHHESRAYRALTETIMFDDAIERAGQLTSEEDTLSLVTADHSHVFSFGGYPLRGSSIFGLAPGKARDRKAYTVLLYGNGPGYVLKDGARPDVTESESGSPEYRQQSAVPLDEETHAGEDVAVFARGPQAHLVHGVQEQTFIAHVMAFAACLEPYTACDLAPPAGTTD
Protocol: The conversion into biologically active drug of phosphate pro-drugs by human placental alkaline phosphatase was measured in vitro using purified enzymes. Purified human placental alkaline phosphatase (Sigma-Aldrich Canada Ltd. Oakville, Ontario, Canada) was added at a concentration of 0.02 U/100 μL to a solution containing 15 μM of phosphate pro-drug, 20 mM Tris-HCl, pH 7.4 and 0.9% NaCl. The solutions were incubated for 10, 20 or 30 minutes. A solution containing 15 μM of phosphate pro-drug, 20 mM Tris-HCl, pH 7.4 and 0.9% NaCl was used a reference (time=0 minutes). To each solution, an equal volume (100 μL) of ice-cold acetonitrile was added, and then the mixture was vortexed and transferred to glass vials. A standard concentration curve of the pro-drug and the drug was prepared in 10 mM Tris-HCl, pH 7.4, 0.45% NaCl and 50% acetonitrile. All samples were immediately analyzed by LC/MS.

[2] = Solubility by filtration and LC/MS; format: physicochemical; conditions: in water (printed for Compound 74)
Protocol: To determine whether a compound is soluble in a solution, the solution was filtered on […] polytetrafluoroethylene filters (Whatman Inc. Clifton, N.J., USA) and the compound concentration in the filtrate was measured by LC/MS and compared to the expected concentration. If the concentration of the compound in the filtrate was equal +/−15% to the expected concentration, the compound was judged to be soluble in the solution.
The detection of Compound 74 or Compound 50 by LC/MS was carried out using the HPLC system that consisted of a Waters Alliance quaternary gradient HPLC pump (Waters, Milford, Mass., USA) and a ZQ2000 single quadrupole mass spectrometer (Waters, Milford, Mass., USA). The column used was XTerra MS C18: 50×2.1 mm, […] column at 20° C. Samples were injected and separated under the following conditions: The mobile phase “A” consisted of 5 mM ammonium formate, 0.1% formic acid in water and mobile phase “B” consisted of 5 mM ammonium formate, 0.1% formic acid in methanol. A linear gradient was applied as follows: 0 to 1 min, 94% “A” and 6% “B”; 1 to 4 min, 6% to 100% “B”; 4 to 8 min 100% “B”; 8 to 9 min, 100% “B” to 6% “B”; 9 to 12 min, 94% “A” and 6% “B”. […] Compounds were detected at m/z equal to their respective molecular weight plus 1.

[3] = tested on: SW480 human colon carcinoma cancer cells; experiment: SW480 colon carcinoma xenograft in SCID mice; format: in vivo, CB17 SCID/SCID female mice; conditions: i.v. 10 mg/kg once a day for five days
Protocol: The resultant mice are a model for a human having colon carcinoma cancer.
The SW480 human colon carcinoma cancer cells were maintained in RPMI supplemented with 10% inactivated fetal bovine serum and 1% penicillin-streptomycin-L-Glutamine, under 5% CO2 at 37° C., and passaged twice a week. The cells were grown at a confluency lower than 70% and then collected with Trypsin (Bio-Whittaker, Md., USA). The cells were then centrifuged and washed twice using phosphate buffered saline solution (PBS) and resuspended in PBS at 1×10^6 cells per 100 μl. Viability was examined by staining with Trypan Blue and only flasks with cell viability of greater than 95% were used for in vivo studies.
(§1) SW480 cells were transplanted subcutaneously into the flank of female CB 17 SCID/SCID mice. Each mouse was inoculated with a suspension of 1×10^6 tumor cells per 100 μL on day zero. The following five treatment groups of ten mice each were used: (a) a negative control group treated with intravenous (i.v.) injection of vehicle, (b) a group treated with i.v. injection of a Compound 50, (c) a group treated with i.v. injection of a Compound 50a, (d) a group treated with i.v. injection of Compound 50b, (e) a group treated with i.v. injection of Compound 74a.
(§2) Treatment started on day twelve after SW480 cells transplantation and Compounds 50, 50a, 50b and 74a were administered i.v. once daily for five consecutive days at a dose of 10, 10, 10 and 50 mg/kg, respectively. Compound 50, 50a and 50b were prepared as a working solution of 1.5 mg/mL in a vehicle solution of 20% Cremaphor EL (Sigma, St. Louis, Miss., USA), and 10% Ethanol. Compound 74a was prepared as a working solution of 5 mg/mL in a vehicle solution of 5% Dextrose (Abbot Laboratories, QC, Canada). The negative control groups were treated with vehicle solution of 20% Cremaphor EL and 10% Ethanol alone.
(§3) The mice were weighed and the tumors measured on day 12 and every 2 to 3 days after treatment commenced. Observations continued for 23 days after initial tumor implantation. The changes in body weight and in the calculated tumor volume were plotted (FIGS. 9 and 10). Statistical analysis was performed using GraphPad Prism (GraphPad Software Inc., San Diego, Calif.). Two-way ANOVA was used to determine how the treatment affected tumor growth over time. Following the two-way ANOVA, post-tests were performed using the Benferroni method to determine the statistical difference between the mean tumor-size of the two groups being compared on every day that the tumors were measured.

[4] = Body weight of SW480 tumor-bearing mice; format: in vivo, CB17 SCID/SCID female mice; conditions: i.v. once daily for five days; 10 mg/kg (50, 50a, 50b), 50 mg/kg (74a)
Protocol: as §1, §2, §3

[5] = tested on: A549 human non-small cell lung carcinoma; experiment: Cell viability, cellular ATP levels (Vialight HS); format: cell-based; conditions: Table 5, A549, NSCL-adrenocarinoma, tumor, ATP levels 72 h post-treatment
Excerpt: (§4) The following cell lines were used: A549 human non-small cell lung carcinoma; C33A human cervical carcinoma; H1299 human non-small cell lung carcinoma; Hep-3B human hepatocellular carcinoma; MIA-Paca-2 human pancreatic carcinoma; PC-3 human prostatic adenocarcinoma (American Type Culture Collection, Manassas, Va., USA); HMEC normal human mammary epithelial cells; HUVEC normal human umbilical vein endothelial cells; and NHBE normal human bronchial epithelial cells (Cambrex Bio Science, Rockland, Me., USA). […] HMEC, HUVEC and NHBE cell lines were cultured in MEGM, EGM-2 and BEGM media, respectively (Cambrex Bio Science, Rockland, Me., USA). The cell lines were plated in 96-well microtitre plate at a density of 2–4×10^3 cells per well. After 16 hours, the cells were treated with various concentrations of Compound 50a or Compound 50b. Stock solutions of Compound 50a and Compound 50b, respectively, were prepared in dimethyl sulfoxide at a concentration of 5 mM. Serial dilutions were prepared in RPMI, 10% FBS and 2% DMSO and then added to the cells. The total DMSO in the cell cultures was 1%. […] The IC50s were determined using a best-fit sigmoidal dose response curve with variable slope.

[6] = tested on: HUVEC normal human umbilical vein endothelial cells; experiment: Cell viability, cellular ATP levels (Vialight HS); format: cell-based; conditions: Table 5, ATP levels 72 h post-treatment
Excerpt: as §4

[7] = tested on: MIA-Paca-2 human pancreatic carcinoma; experiment: Cell viability, cellular ATP levels (Vialight HS); format: cell-based; conditions: Table 5, MIA-Paca-2, pancreas, tumor, ATP levels 72 h post-treatment
Excerpt: as §4

[8] = tested on: Hep-3B human hepatocellular carcinoma; experiment: Cell viability, cellular ATP levels (Vialight HS); format: cell-based; conditions: Hep3B, Table 5, liver, tumor, ATP levels 72 h post-treatment
Excerpt: as §4

[9] = tested on: HMEC normal human mammary epithelial cells; experiment: Cell viability, cellular ATP levels (Vialight HS); format: cell-based; conditions: Table 5, breast epithelial, ATP levels 72 h post-treatment
Excerpt: as §4

[10] = tested on: NHBE normal human bronchial epithelial cells; experiment: Cell viability, cellular ATP levels (Vialight HS); format: cell-based; conditions: Table 5, ATP levels 72 h post-treatment
Excerpt: as §4

[11] = tested on: PC-3 human prostatic adenocarcinoma; experiment: Cell viability, cellular ATP levels (Vialight HS); format: cell-based; conditions: Table 5, PC-3, prostate, tumor, ATP levels 72 h post-treatment
Excerpt: as §4

[12] = tested on: H1299 human non-small cell lung carcinoma; experiment: Cell viability, cellular ATP levels (Vialight HS); format: cell-based; conditions: NCI-H1299, Table 5, H1299, NSCL-LC carcinoma, tumor, ATP levels 72 h post-treatment vs untreated cells, read-out: IC50
Excerpt: as §4
(§5) The selected tumor cell lines included C33A human cervical carcinoma and H1299 human non-small cell lung carcinoma (American Type Culture Collection, Manassas, Va., USA). The cell lines were cultured in RPMI 1640 media supplemented with 10% FBS (Hyclone, Logan, Vt., USA), 100 U/mL penicillin, 100 μg/mL streptomycin and 2 mM L-glutamine (Invitrogen, Carlsbad, Calif., USA). The cell lines were plated in 96-well microtitre plate at a density of 2–4×10^3 cells per well. After 16 hours, the cells were treated with various concentrations of compound 66, 67, 68, 69 and 70, respectively. Stock solutions of compounds 66, 67, 68, 69 and 70 were prepared in dimethyl sulfoxide at a concentration of 5 mM. Serial dilutions were prepared in RPMI, 10% FBS and 2% DMSO and then added to the cells. The total DMSO on the cells was 1%. […] The IC50s were determined using a best-fit sigmoidal dose response curve with variable slope.

[13] = tested on: C33A human cervical carcinoma; experiment: Cell viability, cellular ATP levels (Vialight HS); format: cell-based; conditions: C-33-A, Table 5, C33A, cervix, tumor, ATP levels 72 h post-treatment, read-out: IC50
Excerpt: as §4, §5

Compound | Conversion of pro-drug into drug Compound 50 [1] | solubility [2] [µg/mL] | Tumor growth compared to vehicle [3] | Change in body weight [4] | IC50 [5] [nM] | IC50 [6] [nM] | IC50 [7] [nM] | IC50 [8] [nM] | IC50 [9] [nM] | IC50 [10] [nM] | IC50 [11] [nM] | IC50 [12] [nM] | IC50 [13] [nM]
COc1ccc2c(c1)C1(C)C=CC(=O)C(C)(C)C1=C(OP(=O)(O)O)C2=O (racemic) [Compound 74] | convert a fraction of the pro-drug | ≥ 10000 |  |  |  |  |  |  |  |  |  |  | 
COc1ccc2c(c1)[C@]1(C)C=CC(=O)C(C)(C)C1=C(O)C2=O [Compound 50b] |  |  | significant reduction (p<0.001) | non-significant change in body weight | 580 | 1300 | 250 | 770 | 2100 | 1200 | 350 | 230 | 450
